{"source": "patent US9931320B2", "about": "“Parasiticidal oral veterinary compositions comprising systemically-acting active agents, methods and uses thereof” (MERIAL INC., priority 2012, dated 2018)", "key": {"Amblyomma americanum": {"system": "Amblyomma americanum", "test": "Long lasting efficacy against A. americanum on dogs (Example 6, Table 52)", "format": "in vivo", "experimental": "(§1) Forty two beagles were allotted to seven groups of six dogs each. Groups 1 and 2 served as untreated controls. Groups 3, 4 and 5 were each treated on Day 0 with three different compositions of the invention described in Tables 30, 31 and 32, respectively, containing Compound A in an amount to deliver a dose of about 20 mg/kg of body weight. Similarly, on Day 0, Groups 6 and 7 were each treated with the compositions described in Tables 30 and 32, respectively, containing Compound A to deliver a dose of about 20 mg/kg of body weight.\n(§2) Dogs in Groups 1, 3, 4 and 5 were infested with approximately 50 A. americanum and dogs in Groups 2, 6 and 7 were infested with approximately 50 D. variabilis on Days −1, 42, 56, 70, 77, 84, 91 and 98. Dogs in Groups 1, 2, 3, 6 and 7 were also infested on Day 105. Ticks were counted upon removal at approximately 48 hours post treatment on Day 2 and 48 hours post infestation on Days 44, 58, 72, 79, 86, 93, 100 and 107. Tables 52 and 53 below show the exceptional long-lasting efficacy of the inventive compositions against A. americanum and D. variabilis."}, "Dermacentor variabilis": {"system": "Dermacentor variabilis", "test": "Long lasting efficacy against D. variabilis on dogs (Example 6, Table 53)", "format": "in vivo", "experimental": "as §1, §2"}}, "data": [{"molecule": "O=C(CNC(=O)c1ccc(C2=NOC(c3cc(Cl)cc(C(F)(F)F)c3)(C(F)(F)F)C2)c2ccccc12)NCC(F)(F)F", "note": "(stereo not shown) [Compound A, 4-[5-[3-chloro-5-(trifluoromethyl)phenyl]-4,5-dihydro-5-(trifluoromethyl)-3-isoxazolyl]-N-[2-oxo-2-[(2,2,2-trifluoroethyl)amino]ethyl]-1-naphthalenecarboxamide]", "values": [{"measurement": "% Reduction Ticks", "setting": "Amblyomma americanum; Group 3, composition of Table 30, about 20 mg/kg once on Day 0, dogs, Day 2", "result": 100.0, "unit": "%"}, {"measurement": "% Reduction Ticks", "setting": "Amblyomma americanum; Group 3, composition of Table 30, about 20 mg/kg once on Day 0, dogs, Day 44", "result": 98.4, "unit": "%"}, {"measurement": "% Reduction Ticks", "setting": "Amblyomma americanum; Group 3, composition of Table 30, about 20 mg/kg once on Day 0, dogs, Day 58", "result": 98.8, "unit": "%"}, {"measurement": "% Reduction Ticks", "setting": "Amblyomma americanum; Group 3, composition of Table 30, about 20 mg/kg once on Day 0, dogs, Day 72", "result": 99.5, "unit": "%"}, {"measurement": "% Reduction Ticks", "setting": "Amblyomma americanum; Group 3, composition of Table 30, about 20 mg/kg once on Day 0, dogs, Day 79", "result": 94.4, "unit": "%"}, {"measurement": "% Reduction Ticks", "setting": "Amblyomma americanum; Group 3, composition of Table 30, about 20 mg/kg once on Day 0, dogs, Day 86", "result": 98.9, "unit": "%"}, {"measurement": "% Reduction Ticks", "setting": "Amblyomma americanum; Group 3, composition of Table 30, about 20 mg/kg once on Day 0, dogs, Day 93", "result": 99.5, "unit": "%"}, {"measurement": "% Reduction Ticks", "setting": "Amblyomma americanum; Group 3, composition of Table 30, about 20 mg/kg once on Day 0, dogs, Day 100", "result": 95.6, "unit": "%"}, {"measurement": "% Reduction Ticks", "setting": "Amblyomma americanum; Group 3, composition of Table 30, about 20 mg/kg once on Day 0, dogs, Day 107", "result": 93.4, "unit": "%"}, {"measurement": "% Reduction Ticks", "setting": "Amblyomma americanum; Group 4, composition of Table 31, about 20 mg/kg once on Day 0, dogs, Day 2", "result": 100.0, "unit": "%"}, {"measurement": "% Reduction Ticks", "setting": "Amblyomma americanum; Group 4, composition of Table 31, about 20 mg/kg once on Day 0, dogs, Day 44", "result": 99.4, "unit": "%"}, {"measurement": "% Reduction Ticks", "setting": "Amblyomma americanum; Group 4, composition of Table 31, about 20 mg/kg once on Day 0, dogs, Day 58", "result": 99.4, "unit": "%"}, {"measurement": "% Reduction Ticks", "setting": "Amblyomma americanum; Group 4, composition of Table 31, about 20 mg/kg once on Day 0, dogs, Day 72", "result": 97.7, "unit": "%"}, {"measurement": "% Reduction Ticks", "setting": "Amblyomma americanum; Group 4, composition of Table 31, about 20 mg/kg once on Day 0, dogs, Day 79", "result": 88.6, "unit": "%"}, {"measurement": "% Reduction Ticks", "setting": "Amblyomma americanum; Group 4, composition of Table 31, about 20 mg/kg once on Day 0, dogs, Day 86", "result": 97.5, "unit": "%"}, {"measurement": "% Reduction Ticks", "setting": "Amblyomma americanum; Group 4, composition of Table 31, about 20 mg/kg once on Day 0, dogs, Day 93", "result": 97.7, "unit": "%"}, {"measurement": "% Reduction Ticks", "setting": "Amblyomma americanum; Group 4, composition of Table 31, about 20 mg/kg once on Day 0, dogs, Day 100", "result": 90.9, "unit": "%"}, {"measurement": "% Reduction Ticks", "setting": "Amblyomma americanum; Group 5, composition of Table 32, about 20 mg/kg once on Day 0, dogs, Day 2", "result": 100.0, "unit": "%"}, {"measurement": "% Reduction Ticks", "setting": "Amblyomma americanum; Group 5, composition of Table 32, about 20 mg/kg once on Day 0, dogs, Day 44", "result": 100.0, "unit": "%"}, {"measurement": "% Reduction Ticks", "setting": "Amblyomma americanum; Group 5, composition of Table 32, about 20 mg/kg once on Day 0, dogs, Day 58", "result": 99.5, "unit": "%"}, {"measurement": "% Reduction Ticks", "setting": "Amblyomma americanum; Group 5, composition of Table 32, about 20 mg/kg once on Day 0, dogs, Day 72", "result": 100.0, "unit": "%"}, {"measurement": "% Reduction Ticks", "setting": "Amblyomma americanum; Group 5, composition of Table 32, about 20 mg/kg once on Day 0, dogs, Day 79", "result": 98.8, "unit": "%"}, {"measurement": "% Reduction Ticks", "setting": "Amblyomma americanum; Group 5, composition of Table 32, about 20 mg/kg once on Day 0, dogs, Day 86", "result": 97.8, "unit": "%"}, {"measurement": "% Reduction Ticks", "setting": "Amblyomma americanum; Group 5, composition of Table 32, about 20 mg/kg once on Day 0, dogs, Day 93", "result": 98.2, "unit": "%"}, {"measurement": "% Reduction Ticks", "setting": "Amblyomma americanum; Group 5, composition of Table 32, about 20 mg/kg once on Day 0, dogs, Day 100", "result": 87.8, "unit": "%"}, {"measurement": "% Reduction Ticks", "setting": "Dermacentor variabilis; Group 6, composition of Table 30, about 20 mg/kg once on Day 0, dogs, Day 2", "result": 100.0, "unit": "%"}, {"measurement": "% Reduction Ticks", "setting": "Dermacentor variabilis; Group 6, composition of Table 30, about 20 mg/kg once on Day 0, dogs, Day 44", "result": 100.0, "unit": "%"}, {"measurement": "% Reduction Ticks", "setting": "Dermacentor variabilis; Group 6, composition of Table 30, about 20 mg/kg once on Day 0, dogs, Day 58", "result": 99.5, "unit": "%"}, {"measurement": "% Reduction Ticks", "setting": "Dermacentor variabilis; Group 6, composition of Table 30, about 20 mg/kg once on Day 0, dogs, Day 72", "result": 100.0, "unit": "%"}, {"measurement": "% Reduction Ticks", "setting": "Dermacentor variabilis; Group 6, composition of Table 30, about 20 mg/kg once on Day 0, dogs, Day 79", "result": 98.8, "unit": "%"}, {"measurement": "% Reduction Ticks", "setting": "Dermacentor variabilis; Group 6, composition of Table 30, about 20 mg/kg once on Day 0, dogs, Day 86", "result": 100.0, "unit": "%"}, {"measurement": "% Reduction Ticks", "setting": "Dermacentor variabilis; Group 6, composition of Table 30, about 20 mg/kg once on Day 0, dogs, Day 93", "result": 98.9, "unit": "%"}, {"measurement": "% Reduction Ticks", "setting": "Dermacentor variabilis; Group 6, composition of Table 30, about 20 mg/kg once on Day 0, dogs, Day 100", "result": 99.4, "unit": "%"}, {"measurement": "% Reduction Ticks", "setting": "Dermacentor variabilis; Group 6, composition of Table 30, about 20 mg/kg once on Day 0, dogs, Day 107", "result": 99.4, "unit": "%"}, {"measurement": "% Reduction Ticks", "setting": "Dermacentor variabilis; Group 7, composition of Table 32, about 20 mg/kg once on Day 0, dogs, Day 2", "result": 100.0, "unit": "%"}, {"measurement": "% Reduction Ticks", "setting": "Dermacentor variabilis; Group 7, composition of Table 32, about 20 mg/kg once on Day 0, dogs, Day 44", "result": 100.0, "unit": "%"}, {"measurement": "% Reduction Ticks", "setting": "Dermacentor variabilis; Group 7, composition of Table 32, about 20 mg/kg once on Day 0, dogs, Day 58", "result": 100.0, "unit": "%"}, {"measurement": "% Reduction Ticks", "setting": "Dermacentor variabilis; Group 7, composition of Table 32, about 20 mg/kg once on Day 0, dogs, Day 72", "result": 100.0, "unit": "%"}, {"measurement": "% Reduction Ticks", "setting": "Dermacentor variabilis; Group 7, composition of Table 32, about 20 mg/kg once on Day 0, dogs, Day 79", "result": 100.0, "unit": "%"}, {"measurement": "% Reduction Ticks", "setting": "Dermacentor variabilis; Group 7, composition of Table 32, about 20 mg/kg once on Day 0, dogs, Day 86", "result": 100.0, "unit": "%"}, {"measurement": "% Reduction Ticks", "setting": "Dermacentor variabilis; Group 7, composition of Table 32, about 20 mg/kg once on Day 0, dogs, Day 93", "result": 97.9, "unit": "%"}, {"measurement": "% Reduction Ticks", "setting": "Dermacentor variabilis; Group 7, composition of Table 32, about 20 mg/kg once on Day 0, dogs, Day 100", "result": 100.0, "unit": "%"}, {"measurement": "% Reduction Ticks", "setting": "Dermacentor variabilis; Group 7, composition of Table 32, about 20 mg/kg once on Day 0, dogs, Day 107", "result": 100.0, "unit": "%"}]}]}
